Measurements as given in ChEMBL document CHEMBL1201862, “PubChem BioAssay data set” (2004).
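Five concentrations, 48 hours, 96-well plates. At the GI50, growth is halved.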 Active and inactive are the calls of the source. Rule as the data show it: active = GI50 up to about 1.1 µM and inactive = higher.

Assays:
Experiment in all cases: growth of human tumour cells (NCI), 48 h
[1] = system: IGROV-1
[2] = system: SF-295
[3] = system: OVCAR-4
[4] = system: DU-145
[5] = system: SK-MEL-2
[6] = system: NCI-H522
[7] = system: MDA-MB-435
[8] = system: NCI-H23
[9] = system: HOP-62
[10] = system: U-251
[11] = system: CCRF-CEM
[12] = system: RPMI-8226
[13] = system: SK-OV-3
[14] = system: Malme-3M
[15] = system: MOLT-4
[16] = system: UACC-257
[17] = system: HCC 2998
[18] = system: CAKI-1
[19] = system: T47D
[20] = system: RXF 393

Compound | GI50 [1] | GI50 [2] | GI50 [3] | GI50 [4] | GI50 [5] | GI50 [6] | GI50 [7] | GI50 [8] | GI50 [9] | GI50 [10] | GI50 [11] | GI50 [12] | GI50 [13] | GI50 [14] | GI50 [15] | GI50 [16] | GI50 [17] | GI50 [18] | GI50 [19] | GI50 [20]
CCOC(=O)Nc1[nH]cc(-c2ccccc2)c1C#N | > 100 µM (inactive) | > 100 µM (inactive) | > 100 µM (inactive) | > 100 µM (inactive) | > 100 µM (inactive) | > 100 µM (inactive) | > 100 µM (inactive) | > 100 µM (inactive) | > 100 µM (inactive) | > 100 µM (inactive) | > 100 µM (inactive) | > 100 µM (inactive) | > 100 µM (inactive) | > 100 µM (inactive) | > 100 µM (inactive) | – | – | – | – | –
COC(=O)C1CC2(CCC1=O)Cc1ccccc1C2=O (centres undefined) | > 100 µM (inactive) | 82.2 µM (inactive) | > 100 µM (inactive) | > 100 µM (inactive) | > 100 µM (inactive) | 67.8 µM (inactive) | – | > 100 µM (inactive) | > 100 µM (inactive) | > 100 µM (inactive) | 50.4 µM (inactive) | 65.5 µM (inactive) | > 100 µM (inactive) | > 100 µM (inactive) | 48.5 µM (inactive) | > 100 µM (inactive) | > 100 µM (inactive) | > 100 µM (inactive) | > 100 µM (inactive) | 14.5 µM (inactive)
O=C(c1ccccc1)C(c1ccccc1)C1(O)C(=O)Nc2c(Cl)cc(Cl)cc21 (centres undefined) | – | 17.7 µM (inactive) | 13.7 µM (inactive) | – | 16.8 µM (inactive) | 16.6 µM (inactive) | – | 18 µM (inactive) | > 10 µM (inactive) | 26.2 µM (inactive) | 14 µM (inactive) | 8.34 µM (inactive) | 30.2 µM (inactive) | 18.6 µM (inactive) | 20.3 µM (inactive) | 18.6 µM (inactive) | 16.3 µM (inactive) | 17.4 µM (inactive) | – | 19.1 µM (inactive)
C#CCn1c(=O)c2cccnc2n(CC#C)c1=O | – | > 100 µM (inactive) | > 100 µM (inactive) | – | > 100 µM (inactive) | > 100 µM (inactive) | – | > 100 µM (inactive) | > 100 µM (inactive) | > 100 µM (inactive) | > 100 µM (inactive) | > 100 µM (inactive) | > 100 µM (inactive) | > 100 µM (inactive) | > 100 µM (inactive) | > 100 µM (inactive) | > 100 µM (inactive) | > 100 µM (inactive) | – | > 100 µM (inactive)
C/C(=N\[N+](C)(C)C)C(c1ccccc1)C1(c2ccccc2)C(c2ccccc2)=C1c1ccccc1 (centres undefined) | > 100 µM (inactive) | 41.1 µM (inactive) | > 100 µM (inactive) | – | > 100 µM (inactive) | > 100 µM (inactive) | – | > 100 µM (inactive) | 33 µM (inactive) | 66.1 µM (inactive) | > 100 µM (inactive) | > 100 µM (inactive) | > 100 µM (inactive) | > 100 µM (inactive) | > 100 µM (inactive) | > 100 µM (inactive) | > 100 µM (inactive) | > 100 µM (inactive) | – | 22 µM (inactive)
CCN(CC)CC1c2ccccc2C(CNc2ccccc2)N1C (centres undefined) | > 100 µM (inactive) | > 100 µM (inactive) | > 100 µM (inactive) | – | > 100 µM (inactive) | > 100 µM (inactive) | – | > 100 µM (inactive) | > 100 µM (inactive) | – | 83.8 µM (inactive) | 80.7 µM (inactive) | > 100 µM (inactive) | > 100 µM (inactive) | 80.4 µM (inactive) | > 100 µM (inactive) | > 100 µM (inactive) | 92 µM (inactive) | – | > 100 µM (inactive)
c1ccc2/c3[nH]/c(c2c1)=N\c1ccc(cc1)-c1nc2cc(ccc2o1)/N=c1/[nH]/c(c2ccccc12)=N/c1ccc2nc(oc2c1)-c1ccc(cc1)\N=3 | > 100 µM (inactive) | > 100 µM (inactive) | > 100 µM (inactive) | > 100 µM (inactive) | – | > 100 µM (inactive) | 42.4 µM (inactive) | > 100 µM (inactive) | 78.3 µM (inactive) | > 100 µM (inactive) | > 100 µM (inactive) | – | – | – | > 100 µM (inactive) | > 100 µM (inactive) | 6.9 µM (inactive) | > 100 µM (inactive) | – | > 100 µM (inactive)
O.O=C([O-])c1ccccc1Nc1ccccc1C(=O)[O-].[Zn+2] | 13.3 µM (inactive) | 17.4 µM (inactive) | 19.8 µM (inactive) | – | 20.7 µM (inactive) | 13.2 µM (inactive) | – | 18.2 µM (inactive) | > 43.1 µM (inactive) | 18.7 µM (inactive) | 24.1 µM (inactive) | 48 µM (inactive) | 20.4 µM (inactive) | 23.2 µM (inactive) | 30.5 µM (inactive) | 14.3 µM (inactive) | > 100 µM (inactive) | 5.08 µM (inactive) | – | 20.6 µM (inactive)
O=C(Cc1cccs1)N[C@@H]1C(=O)N2C(C(=O)OC(c3ccccc3)c3ccccc3)=C(CO)CS[C@H]12 | 29.9 µM (inactive) | > 100 µM (inactive) | 74.3 µM (inactive) | > 100 µM (inactive) | > 100 µM (inactive) | 16.8 µM (inactive) | 65.9 µM (inactive) | 46 µM (inactive) | – | > 100 µM (inactive) | 20 µM (inactive) | 96.2 µM (inactive) | > 100 µM (inactive) | 40.7 µM (inactive) | > 100 µM (inactive) | > 100 µM (inactive) | 52.8 µM (inactive) | > 100 µM (inactive) | – | > 100 µM (inactive)
N=C(N)C1=C(O)NC(=O)N(C2CCCCC2)C1 | > 100 µM (inactive) | > 100 µM (inactive) | > 100 µM (inactive) | – | > 100 µM (inactive) | > 100 µM (inactive) | – | > 100 µM (inactive) | > 100 µM (inactive) | > 100 µM (inactive) | > 100 µM (inactive) | > 100 µM (inactive) | > 100 µM (inactive) | > 100 µM (inactive) | > 100 µM (inactive) | > 100 µM (inactive) | > 100 µM (inactive) | > 100 µM (inactive) | – | > 100 µM (inactive)
CC1(C)OCC(C2OC(OC(=O)c3ccc(C(F)(F)F)cc3)C3OC(C)(C)OC23)O1 (centres undefined) | > 77.4 µM (inactive) | > 77.4 µM (inactive) | > 77.4 µM (inactive) | > 77.4 µM (inactive) | > 77.4 µM (inactive) | > 77.4 µM (inactive) | > 77.4 µM (inactive) | 58.3 µM (inactive) | 39.9 µM (inactive) | 57.8 µM (inactive) | 28.2 µM (inactive) | 44.4 µM (inactive) | > 77.4 µM (inactive) | > 77.4 µM (inactive) | 38 µM (inactive) | > 77.4 µM (inactive) | > 77.4 µM (inactive) | > 77.4 µM (inactive) | – | 28 µM (inactive)
O=c1[nH]c2c(S)nc(O)nc2n1-c1ccccc1 | > 100 µM (inactive) | > 100 µM (inactive) | > 100 µM (inactive) | > 100 µM (inactive) | > 100 µM (inactive) | > 100 µM (inactive) | > 100 µM (inactive) | > 100 µM (inactive) | > 100 µM (inactive) | > 100 µM (inactive) | – | – | – | > 100 µM (inactive) | > 100 µM (inactive) | > 100 µM (inactive) | > 100 µM (inactive) | > 100 µM (inactive) | – | > 100 µM (inactive)
Cn1c(=O)c2c(nc(-n3nc(-c4ccc(Cl)cc4)cc3N)n2C)n(C)c1=O | > 100 µM (inactive) | 25.5 µM (inactive) | 5.6 µM (inactive) | > 100 µM (inactive) | > 100 µM (inactive) | – | > 100 µM (inactive) | > 100 µM (inactive) | 10.5 µM (inactive) | > 100 µM (inactive) | > 100 µM (inactive) | 69.7 µM (inactive) | 18.1 µM (inactive) | 7.13 µM (inactive) | 11.6 µM (inactive) | > 100 µM (inactive) | > 100 µM (inactive) | > 100 µM (inactive) | – | > 100 µM (inactive)
COc1cc([C@@H]2c3cc4c(cc3[C@@H](NC(=O)c3ccccc3)C3COC(=O)[C@@H]32)OCO4)cc(OC)c1O (some centres undefined) | 1.65 µM (inactive) | 3.51 µM (inactive) | 39.7 µM (inactive) | – | 20.3 µM (inactive) | 0.423 µM (active) | – | 2.77 µM (inactive) | 2.54 µM (inactive) | 1.32 µM (inactive) | 1.57 µM (inactive) | 2.61 µM (inactive) | 6.62 µM (inactive) | 3.61 µM (inactive) | 0.491 µM (active) | 2.99 µM (inactive) | 14 µM (inactive) | 11.3 µM (inactive) | – | 7.31 µM (inactive)
CN(Cc1cc(Cl)c(Cl)cc1NC(=O)CN)[C@H]1CCCC[C@@H]1N1CCCC1 | 66.2 µM (inactive) | 18.6 µM (inactive) | > 100 µM (inactive) | – | 16.2 µM (inactive) | 18.4 µM (inactive) | 15.6 µM (inactive) | > 100 µM (inactive) | 92.7 µM (inactive) | 5.2 µM (inactive) | 30.3 µM (inactive) | – | > 100 µM (inactive) | 18.3 µM (inactive) | 28.8 µM (inactive) | 16.9 µM (inactive) | 17.2 µM (inactive) | 92.7 µM (inactive) | 38.6 µM (inactive) | > 100 µM (inactive)
